# Source: US12544413B2, “Composition with antibacterial and re-epithelializing action including probiotics” (EOS2021 S.R.L, priority 2019, dated 2026)
# Key:
# [1] = Clinical course of diabetes ulcers and toe amputation wound in a patient (Example 1); type: in vivo, human; conditions: 500 mg orally every 12 hours, four weeks
# Text: The probiotic formulation was a composition comprising Lactobacillus plantarum NCIMB 43029, Lactobacillus acidophilus NCIMB 43030 and the known Streptococcus thermophilus (SEQ ID NO: 10). 0.5 g of composition was applied once daily.
# The use of the probiotic formulation was discontinued on day 60, 24 days after treatment.
# [2] = system: HaCaT keratinocytes; experiment: Trypan blue dye exclusion test of HaCaT viability; type: cell-based, human; conditions: 0.1%; positive control; P≤0.01
# Procedure: The HaCaT cell line of spontaneously immortalized human keratinocytes was purchased from Cell Lines Service GmbH (Eppelheim, Germany). HaCaT cells were cultured in DMEM supplemented with 10% (v/v) fetal calf serum (FCS), 2 mM L-glutamine, 100 U/ml penicillin and 100 μg/ml streptomycin (Euro Clone, West York, UK). The culture conditions were kept constantly at 37° C. in a humidified atmosphere with 5% CO2. After reaching 80% confluency, cells were seeded, as specified below, in 6- or 12-well plates for sterile cell cultures (Becton Dickinson, San José, CA) at the concentration of 18,000 cells/cm^2. Non-adherent cells were removed by gentle washing in phosphate buffer (PBS, pH=7.4). Cells grown in a 12-well plate were collected at 20, 28 and 45 hours and live cells were counted with the trypan blue dye exclusion test (Euro Clone, West York, UK). […] Untreated cells were also analysed and used as negative controls. The cells were transferred to a Bürker counting chamber and counted under a microscope Eclipse 50i (Nikon Corporation, Japan). For the selection of suitable concentrations of bacterial extract expressed as μg protein/ml, the viability of the HaCaT keratinocytes was analyzed using the trypan blue exclusion test. […]
# [3] = system: iNOS; experiment: Nitrite levels assay (Griess) in culture medium of scratched HaCaT monolayers; type: cell-based, human; conditions: AG 20 μM, 15 min pre-treatment, no bacterial extract, 28 hours
# Procedure: The scratched monolayers of HaCaT cells were incubated with or without AG at the concentration of 20 μM for 15 minutes before treatment with the bacterial extracts. Nitrite levels in the culture medium were analyzed by Griess reagent after 28 hours. Data shown are expressed as the mean±SEM of three independent experiments conducted in duplicate. The two-way analysis of variance followed by the Bonferroni's post-hoc test was used to assess the presence of statistically significant differences between the data groups: *P<0.05, **P<0.01, ****P<0.0001 with respect to the control (untreated). #P<0.05, ##P<0.01, ###P<0.001, ####P<0.0001 with respect to each corresponding culture without AG. The ability of bacterial extracts to regulate iNOS was further analyzed by measuring the nitrite levels in supernatants of scratched monolayers of HaCaT cells pre-treated with AG, a selective iNOS inhibitor, or not treated with such inhibitor (known from T. P. Misko et al., Eur. J. Pharmacol, 1993, 233:119-125). NO production was indirectly evaluated with the use of the Griess method by measuring nitrite levels using nitrate reductase and the Griess reaction based on a colorimetric assay. […] Absorbance was measured by spectrophotometric reading at 550 nm using a microplate reader (Bio-Rad Hercules, California, USA). […]
# [4] = system: scratched monolayers of HaCaT cells (human keratinocyte cell line); experiment: In vitro wound healing model (scratched HaCaT monolayer); type: cell-based; conditions: AG 20 μM, 15 min pre-treatment, no bacterial extract, 20 hours
# Procedure: The inventor has evaluated the ability of extracts obtained from selected bacterial strains to influence wound re-epithelialization using an in vitro artificial wound model. The rate of closure of the scratched monolayer in untreated cells and in cells treated with each bacterial extract at the concentration of 50 μg/ml is shown and evaluated through the observation of the repopulation of the area between the wound edges at different time points after the wound generation. In order to quantitatively analyze the effects of the bacterial extracts on the closure of the wound area, images obtained by using an inverted phase contrast microscope at 0, 20, 28 and 45 hours after the scratch were acquired and expressed as a percentage of closure by using an automatical calculation system to evaluate the percentage of area occupied by said cells with respect to the total surface area analyzed. […] The results expressed as percentages of relative re-epithelialization (mean±SEM from three independent experiments conducted in duplicate) as well as the images representing microscopic observations of scratched monolayers are shown in FIGS. 1A and 1B respectively.
# The HaCaT cell line of spontaneously immortalized human keratinocytes was purchased from Cell Lines Service GmbH (Eppelheim, Germany). […] Untreated cells were also analysed and used as negative controls. […]
compound,measurement,setting,value
CC1(C)S[C@@H]2[C@H](NC(=O)[C@H](N)c3ccc(O)cc3)C(=O)N2[C@H]1C(=O)O [amoxicillin],clinical picture of the wounds (wound exudate),[1],worsening clinical picture
Triton X,cell viability,[2],significant reduction
"N=C(N)NN [AG, aminoguanidine]",nitrite production induced by scratching the control monolayer,[3],significantly prevented the increase in nitrite production
same,re-epithelialization (repairing) of the control monolayer,[4],strong effect on the physiological repairing of the control monolayer
